Laboratory results from patent US6930131B2, “Aryl substituted 3-ethoxy phenyl trifluoromethane sulfonamides for the treatment of non-insulin dependent diabetes mellitus (NIDDM)” (Wyeth, priority 2002, dated 2005).
pIC50: −log10 of the molar value.

Tests used:
[1] = system: Hepatocytes Isolated and Cultured from Obese Zucker (fa/fa) Rats; assay: Inhibition of glucose output from hepatocytes isolated and cultured from obese Zucker (fa/fa) rats; format: cell-based, rat; details: inhibition of glucose output vs glucagon stimulated cultured hepatocytes
Method: Inhibition of Glucose Output from Hepatocytes Isolated and Cultured from Obese Zucker (fa/fa) Rats and their Lean Controls
Culturing of Hepatocytes: Isolated hepatocytes were plated on 12 well rat-tail collagen coated plates at a cell density of 5×10(5) cells/ml (approximately 1 ml of cell suspension per well). Following a one hour attachment period in which plates were incubated in a CO2 incubator at 37 deg C. (95% O2, 5% CO2), the supernatant containing unattached hepatocytes was removed and replaced with fresh media (1 ml/well) containing 1 μM dexamethasone and 100 pM insulin. Cells were maintained at 37 deg C. for 48 hours in a 95% O2, 5% CO2 environment. At the end of the first 24 hours, the media was aspirated off of the wells and replaced with fresh media containing the same concentrations of dexamethasone and insulin as described earlier. Treatment with Drugs and Assessment of Glucose Output: Drugs were routinely added with fresh media 24 hours after the initial attachment period. Eighteen hours later, media was aspirated and 500 μl of fresh Hank's buffer, Buffer D (glucose-free) supplemented with hormones, gluconeogenic substrates and drug(s) was added to each well and incubated for 4 hours. At the end of the 4 hour incubation, media from each well was removed and assayed for glucose content using the hexokinase/glucose-6-phosphate dehydrogenase coupled assay on the Boehringer Mannheim model 911 auto analyzer. Glucose concentration was expressed as μg/ml. Three of the plates from each treated group were frozen for subsequent determination of protein content. Two plates from each treatment group were used to assess the cytotoxicity of drug(s) and other agents as determined by the MTT (tetrazolium) dye reduction method (see below).
Assessment of Cytotoxicity using MTT Dye Reduction Assay: Two plates with no insulin treatment and two plates with 10^−8 M insulin treatment were used for the MTT dye reduction assay. Following removal of media from the plates for measurement of glucose output, wells were washed once with 1 ml of Hank's buffer (0.5% BSA). Aliquots of […] of Hank's buffer (1.1% BSA) and […] MTT solution (5 mg MTT/ml in phosphate buffered saline (PBS) filtered through 0.45 micron syringe filter) were added to each well. Plates were incubated for one hour at 37 deg C. After one hour incubation, the MTT dye solution was aspirated off and […] of HCL/isopropanol solution (8 ml of 1 N HCL and 192 ml of isopropanol) was added to each well. HCL/isopropanol solution was mixed by drawing liquid into a pipetman 2 to 3 times and then carefully transferred into a 96 well flat bottom plate. The 96 well plate was read on a plate reader (UV max kinetic microplate reader, Molecular Devices) at 570 nm test wavelength and 650 nm reference wavelength. The results were expressed as % inhibition from the control (lactate and glucagon treated) well.
Protein test procedure: Three plates with no insulin treatment and three plates with 10^−8 M insulin treatment were used for protein determination. After supernatant has been removed for determination of glucose output the plates were frozen and stored at −20 deg C. until ready to assay for protein content. Prior to determination of protein the plates were defrosted at room temperature for 15 minutes. An aliquot of 1 ml 0.1 N NaOH was added to each well. Plates were incubated at 4 deg C. overnight. Solutions for measurement of protein content were mixed by pipetting the NaOH solution up and down several time with a 1 ml pipette and then transferring to a small polyethylene tube. Protein determination was based on that of the Pierce BCA protein assay protocol (Pierce cat. no. 23223). A set of protein standards (0.2, 0.4, 0.6, 0.8, and 1 mg/ml BSA) was prepared by serial dilution of 1 mg/ml bovine serum albumin with 0.1 N NaOH, and 40 μl of each standard, or control blank was pipetted into a 96-well plate in duplicate. Each unknown protein sample (40 μl) was tested in triplicate. […]

ob/ob (C57 B1/6J) mice = assay: Hypoglycemic effect in diabetic ob/ob mice; format: in vivo, mouse
Method: Hypoglycemic Effect in Diabetic OB/OB Mice
Procedure: In each study, male or female ob/ob (C57 B1/6J) mice and their mean litermates (ob/+ or +/+, Jackson Laboratories) ages 2 to 5 months (10 to 65 g) were randomized according to plasma glucose into 4 groups of 10 mice. The mice were housed 5 per cage and were maintained on normal rodent chow with water ad libitum. Mice receive compound daily by gavage (suspended in 0.5 ml of 0.5% methyl cellulose); dissolved in the drinking water; or admixed in the diet. The dose of compounds given ranges from 2.5 to 200 mg/kg body weight/day. Body weight of fed animals was measured at the beginning of each week and doses for the entire week were calculated using this weight and were expressed in terms of the active moiety of the compound. Control mice receive vehicle only. […]
Measurements: The plasma was isolated by centrifugation and the concentration of glucose was measured enzymatically on an Abbott V. P. Analyzer and the plasma concentration of insulin was determined by radioimmunoassay (Heding, 1972)
Analysis of variance followed by Dunnett's Comparison Test (one-tailed) was used to estimate the significant difference between the plasma glucose values from the control group and the individual compound treated groups (CMS SAS Release 5.18). A compound will be considered active if the difference has a p<0.05.

Structure (SMILES): O=S(=O)(Nc1cccc(CCOCc2ccc(-c3ccc(F)cc3)cc2Cl)c1)C(F)(F)F [Example 22]
- pIC50 [1]: 5.66

Structure (SMILES): O=S(=O)(Nc1cccc(CCOCc2ccc(-c3ccc(C(F)(F)F)cc3)cc2)c1)C(F)(F)F [Example 2, C,C,C-trifluoro-N-{3-[2-(4′-trifluoromethyl-biphenyl-4-ylmethoxy)-ethyl]-phenyl}-methanesulfonamide]
- Reduction in Plasma Glucose Day 1 (6 hr) p.o. (ob/ob (C57 B1/6J) mice; 5 mg/kg p.o.): −8%
- Reduction in Plasma Glucose Day 3 (6 hr) p.o. (ob/ob (C57 B1/6J) mice; 5 mg/kg p.o.): −34%
- melting point: 98 to 100 °C

Structure (SMILES): O=S(=O)(Nc1cccc(CCOCc2csc(-c3ccc(Cl)cc3)n2)c1)C(F)(F)F [Example 53, N-(3-{2-[2-(4-Chloro-phenyl)-thiazol-4-ylmethoxy]-ethyl}-phenyl)-C,C,C-trifluoro-methanesulfonamide]
- pIC50 ([1]; Rattus norvegicus, Hepatocyte): 5.00
- Reduction in Plasma Glucose Day 1 (6 hr) p.o. (ob/ob (C57 B1/6J) mice; 10 mg/kg p.o.): −36%
- Reduction in Plasma Glucose Day 3 (6 hr) p.o. (ob/ob (C57 B1/6J) mice; 10 mg/kg p.o.): −26%
- melting point: 114 to 116 °C

Structure (SMILES): CC(C)(C)c1ccc(-c2nc(COCCc3cccc(NS(=O)(=O)C(F)(F)F)c3)cs2)cc1 [Example 43, N-(3-{2-[2-(4-tert-Butyl-phenyl)-thiazol-4-ylmethoxy]-ethyl}-phenyl)-C,C,C-trifluoro-methanesulfonamide]
- pIC50 ([1]; Rattus norvegicus, Hepatocyte): 5.16
- melting point: 110 to 112 °C

Structure (SMILES): CC(C)(C)c1ccc(-c2ccc(COCCc3cccc(NS(=O)(=O)C(F)(F)F)c3)c(F)c2)cc1 [Example 19, N-{3-[2-(4′-tert-Butyl-3-fluoro-biphenyl-4-ylmethoxy)-ethyl]-phenyl}-C,C,C-trifluoro-methanesulfonamide]
- pIC50 ([1]; Rattus norvegicus, Hepatocyte): 5.10
- melting point: 89 to 90 °C

Structure (SMILES): O=C(O)c1ncccc1S [Na-Mercaptopicolinic acid, reference compound]
- pIC50 [1]: 4.35

Structure (SMILES): O=S(=O)(Nc1cccc(CCOCc2ccc(-c3ccc(Cl)cc3)cc2Cl)c1)C(F)(F)F [Example 23, N-{3-[2-(3-Chloro-4′-chloro-biphenyl-4-ylmethoxy)-ethyl]-phenyl}-C,C,C-trifluoro methane sulfonamide]
- pIC50 [1]: 5.77
- Reduction in Plasma Glucose Day 1 (6 hr) p.o. (ob/ob (C57 B1/6J) mice; 5 mg/kg p.o.): −37%
- Reduction in Plasma Glucose Day 3 (6 hr) p.o. (ob/ob (C57 B1/6J) mice; 5 mg/kg p.o.): −37%

Structure (SMILES): O=S(=O)(Nc1cccc(CCOCc2ccc(-c3ccc(Cl)cc3)cc2F)c1)C(F)(F)F [Example 11, N-{3-[2-(4′-Chloro-3-fluoro-biphenyl-4-ylmethoxy)-ethyl]-phenyl}-C,C,C-trifluoro methane sulfonamide]
- pIC50 [1]: 5.00

Structure (SMILES): COc1ccc(-c2cc(COCCc3cccc(NS(=O)(=O)C(F)(F)F)c3)ccc2F)cc1 [Example 42, C,C,C-Trifluoro-N-{3-[2-(6-fluoro-4′-methoxy-biphenyl-3-yl-methoxy)-ethyl]-phenyl}-methanesulfonamide]
- Reduction in Plasma Glucose Day 1 (6 hr) p.o. (ob/ob (C57 B1/6J) mice; 10 mg/kg p.o.): −14%
- Reduction in Plasma Glucose Day 3 (6 hr) p.o. (ob/ob (C57 B1/6J) mice; 10 mg/kg p.o.): −14%
- melting point: 70 to 71 °C

Structure (SMILES): COc1cc(-c2ccc(Cl)cc2)ccc1COCCc1cccc(NS(=O)(=O)C(F)(F)F)c1 [Example 26, N-{3-[2-(4′-Chloro-3-methoxy-biphenyl-4-ylmethoxy)-ethyl]-phenyl}-C,C,C-trifluoro methane sulfonamide]
- pIC50 [1]: 5.64
- Reduction in Plasma Glucose Day 1 (6 hr) p.o. (ob/ob (C57 B1/6J) mice; 20 mg/kg p.o.): −20%
- Reduction in Plasma Glucose Day 3 (6 hr) p.o. (ob/ob (C57 B1/6J) mice; 20 mg/kg p.o.): +1

Structure (SMILES): COc1ccc(-c2nc(COCCc3cccc(NS(=O)(=O)C(F)(F)F)c3)cs2)cc1 [Example 59, C,C,C-Trifluoro-N-(3-{2-[2-(4-methoxy-phenyl)-thiazol-4-ylmethoxy]-ethyl}-phenyl)-methanesulfonamide]
- melting point: 112 to 113 °C

Structure (SMILES): O=S(=O)(Nc1cccc(CCOCc2csc(-c3ccc(C(F)(F)F)cc3)n2)c1)C(F)(F)F [Example 52, C,C,C-Trifluoro-N-(3-{2-[2-(4-trifluoromethyl-phenyl)-thiazol-4-ylmethoxy]-ethyl}-phenyl)-methanesulfonamide]
- melting point: 117 to 119 °C

Structure (SMILES): O=S(=O)(Nc1cccc(CCOCc2cc(-c3ccc(F)cc3)ccc2Cl)c1)C(F)(F)F [Example 29, N-{3-[2-(4-Chloro-4′-fluoro-biphenyl-3-ylmethoxy)-ethyl]-phenyl)-C,C,C-trifluoro-methanesulfonamide]
- melting point: 80 to 82 °C

Structure (SMILES): O=S(=O)(Nc1ccc(CCOCc2ccccc2-c2ccccc2)cc1)C(F)(F)F [Example 27, N-{4-[2-(Biphenyl-2-ylmethoxy)-ethyl]-phenyl}-C,C,C-trifluoromethanesulfonamide]
- melting point: 79 to 81 °C

Structure (SMILES): O=S(=O)(Nc1cccc(CCOCc2csc(-c3ccc(F)c(Cl)c3)n2)c1)C(F)(F)F [Example 56, N-(3-{2-[2-(3-Chloro-4-fluoro-phenyl)-thiazol-4-ylmethoxy]-ethyl}-phenyl)-C,C,C-trifluoro-methanesulfonamide]
- pIC50 ([1]; Rattus norvegicus, Hepatocyte): 4.82
- Reduction in Plasma Glucose Day 1 (6 hr) p.o. (ob/ob (C57 B1/6J) mice; 5 mg/kg p.o.): −16%
- Reduction in Plasma Glucose Day 3 (6 hr) p.o. (ob/ob (C57 B1/6J) mice; 5 mg/kg p.o.): −26%

Structure (SMILES): O=S(=O)(Nc1cccc(CCOCc2ccc(Br)cc2F)c1)C(F)(F)F [Example 72, N-{3-[2-(4-Bromo-2-fluoro-benzyloxy)-ethyl]-phenyl}-C,C,C-trifluoro-methanesulfonamide]
- melting point: 48 to 50 °C

Structure (SMILES): O=S(=O)(Nc1cccc(CCOCc2ccc(C3CCCCC3)cc2)c1)C(F)(F)F [Example 68, N-{3-[2-(4-cyclohexyl-benzyloxy)-ethyl]-phenyl}-C,C,C-trifluoro-methane sulfonamide]
- melting point: 90 to 92 °C

Structure (SMILES): O=S(=O)(Nc1cccc(CCOCc2cccc(OCc3ccccc3)c2)c1)C(F)(F)F [Example 73, N-{3-[2-(3-benzyloxy-benzyloxy)-ethyl]-phenyl}-C,C,C-trifluoro-methanesulfonamide]
- melting point: 62 to 63 °C

Structure (SMILES): CC(C)(C)c1ccc(COCCc2cccc(NS(=O)(=O)C(F)(F)F)c2)cc1 [Example 69, N-{3-[2-(4-tert-Butyl-benzyloxy)-ethyl]-phenyl}-C,C,C-trifluoro-methane sulfonamide]
- melting point: 40 to 42 °C

Structure (SMILES): O=S(=O)(Nc1cccc(CCOCc2ccc(-c3cc(Cl)cc(Cl)c3)cc2)c1)C(F)(F)F [Example 35, N-{3-[2-(3′,5′-Dichloro-biphenyl-4-ylmethoxy)-ethyl]-phenyl)-C,C,C-trifluoro-methanesulfonamide]
- melting point: 70 to 72 °C

Structure (SMILES): O=S(=O)(Nc1cccc(CCOCc2sc3ccccc3c2Cl)c1)C(F)(F)F [Example 66, N-{3-[2-(3-Chloro-benzo[b]thiophen-2-ylmethoxy)-ethyl]-phenyl}-C,C,C-trifluoro-methanesulfonamide]
- melting point: 85 to 87 °C

Structure (SMILES): O=S(=O)(Nc1cccc(CCOCc2ccc(-c3ccc(F)cc3)cc2)c1)C(F)(F)F [Example 37, N-{3-[2-(4′-Fluoro-biphenyl-4-ylmethoxy)-ethyl]-phenyl)-C,C,C-trifluoro-methanesulfonamide]
- melting point: 65 to 67 °C
